Experimental data from patent US9284323B2, “Naphthalene acetic acid derivatives against HIV infection” (Gilead Sciences, Inc., priority 2012, dated 2016).

These compounds were tested on HIV-IIIb (assay: Test A: Antiviral Assays in MT4 Cells). Settings: Human immunodeficiency virus 1, IIIB, MT4, 120 h, Table I; MT-4 cells infected with HIV-IIIb, 5 days incubation, CellTiter-Glo readout.
Format: cell-based
Method: The antiviral properties of a compound disclosed herein may be determined using Test A described below.
Test A: Antiviral Assays in MT4 Cells
For the antiviral assay utilizing MT-4 cells, 0.4 μL of […] test concentration of 3-fold serially diluted compound in DMSO was added to 40 μL of cell growth medium (RPMI 1640, 10% FBS, 1% penicillin/Streptomycin, 1% L-Glutamine, 1% HEPES) in each well of 384-well assay plates (10 concentrations) in quadruplicate.
1 mL aliquots of 2×10e6 MT-4 cells are pre-infected for 1 and 3 hrs respectively, @ 37° C. with 25 μL (MT4) or of either cell growth medium (mock-infected) or a fresh 1:250 dilution of an HIV-IIIb concentrated ABI stock (0.004 m.o.i. for MT4 cells). Infected and uninfected cells are diluted in cell growth medium and 35 μL of 2000 (for MT4) cells is added to each well of the assay plates.
Assay plates were then incubated in a 37° C. incubator. After 5 days of incubation, 25 μl of 2× concentrated CellTiter-Glo™ Reagent (catalog # G7573, Promega Biosciences, Inc., Madison, Wis.) was added to each well of the assay plate. Cell lysis was carried out by incubating at room temperature for 2-3 min and then chemiluminescence was read using the Envision reader (PerkinElmer).
In the case of `Cc1ccc2cc(C)c([C@H](OC(C)(C)C)C(=O)O)c(-c3ccc4c5c(ccnc35)CCO4)c2c1` (atropisomer, axis not shown) [Example 15, (S)-2-tert-Butoxy-2-((R)-1-(2,3-dihydropyrano[4,3,2-de]quinolin-7-yl)-3,7-dimethylnaphthalen-2-yl)acetic acid], the EC50 is reported as 34 nM.
Compound `Cc1ccc2c(-c3ccc4c5c(ccnc35)CCO4)c([C@H](OC(C)(C)C)C(=O)O)c(C)cc2c1` (atropisomer, axis not shown) [Example 16, (S)-2-tert-butoxy-2-((S)-1-(2,3-dihydropyrano[4,3,2-de]quinolin-7-yl)-3,6-dimethylnaphthalen-2-yl)acetic acid] has an EC50 of 1740 nM.
Compound `Cc1cc2cc(C#CC3CC3)ccc2c(-c2ccc3c4c(ccnc24)CCO3)c1[C@H](OC(C)(C)C)C(=O)O` (atropisomer, axis not shown) [Example 21, (S)-2-tert-Butoxy-2-((R)-6-(cyclopropylethynyl)-1-(2,3-dihydropyrano[4,3,2-de]quinolin-7-yl)-3-methylnaphthalen-2-yl)acetic acid] has an EC50 of 169 nM.
`CCOc1c(C#N)ccc2c(-c3ccc4c5c(ccnc35)CCO4)c([C@H](OC(C)(C)C)C(=O)O)c(C)cc12` (atropisomer, axis not shown) [Example 22, (S)-2-tert-Butoxy-2-((R)-6-cyano-1-(2,3-dihydropyrano[4,3,2-de]quinolin-7-yl)-5-ethoxy-3-methylnaphthalen-2-yl)acetic acid] gave an EC50 of 14 nM.
Compound `CC(C)(C)O[C@H](C(=O)O)c1c(-c2ccc3c4c(ccnc24)CCO3)c2ccccc2c2ccccc12` (atropisomer, axis not shown) [Example 24, (S)-2-tert-Butoxy-2-((R)-10-(2,3-dihydropyrano[4,3,2-de]quinolin-7-yl)phenanthren-9-yl)acetic acid] has an EC50 of 109 nM.
In the case of `CCCC(C)(C)O[C@H](C(=O)O)c1c(C)cc2ccccc2c1-c1ccc2c3c(ccnc13)CCO2` (atropisomer, axis not shown) [Example 29, (S)-2-((R)-1-(2,3-Dihydropyrano[4,3,2-de]quinolin-7-yl)-3-methylnaphthalen-2-yl)-2-(2-methylpentan-2-yloxy)acetic acid], the EC50 is reported as 84 nM.
With `CCCCC(C)(C)O[C@H](C(=O)O)c1c(C)cc2ccccc2c1-c1ccc2c3c(ccnc13)CCO2` (atropisomer, axis not shown) [Example 30, (S)-2-((S)-1-(2,3-Dihydropyrano[4,3,2-de]quinolin-7-yl)-3-methylnaphthalen-2-yl)-2-(2-methylhexan-2-yloxy)acetic acid] the EC50 was 84 nM.

Same assay, conditions: Human immunodeficiency virus 1, IIIB, MT4, 120 h, Table II; MT-4 cells infected with HIV-IIIb, 5 days incubation, CellTiter-Glo readout
`Cc1cc2cc(-c3cnc(N4CCN(C)CC4)nc3)ccc2c(-c2ccc3c4c(ccnc24)CCO3)c1[C@H](OC(C)(C)C)C(=O)O` (atropisomer, axis not shown) [Example 35] was tested, and the EC50 was 4.4 nM.
`COc1ncc(-c2ccc3c(-c4ccc5c6c(ccnc46)CCO5)c([C@H](OC(C)(C)C)C(=O)O)c(C)cc3c2)c(O)n1` (atropisomer, axis not shown) [Example 47] showed an EC50 of 59.2 nM.
`Cc1cc2cc(-c3cnc(N(C)C)nc3)ccc2c(-c2ccc3c4c(ccnc24)CCO3)c1[C@H](OC(C)(C)C)C(=O)O` (atropisomer, axis not shown) [Example 48] was tested, and the EC50 was 10.4 nM.
For `COc1ncc(-c2ccc3c(-c4ccc5c6c(ccnc46)CCO5)c([C@H](OC(C)(C)C)C(=O)O)c(C)cc3c2)c(OC)n1` (atropisomer, axis not shown) [Example 49], the EC50 was 13.8 nM.
In the case of `CCOc1ncc(-c2ccc3c(-c4ccc5c6c(ccnc46)CCO5)c([C@H](OC(C)(C)C)C(=O)O)c(C)cc3c2)c(OCC)n1` (atropisomer, axis not shown) [Example 50], the EC50 is reported as 45.1 nM.
For `Cc1cc2cc(-c3cnc(N4CCCC4)nc3)ccc2c(-c2ccc3c4c(ccnc24)CCO3)c1[C@H](OC(C)(C)C)C(=O)O` (atropisomer, axis not shown) [Example 51], the EC50 was 20.5 nM.
Work on `Cc1cc2cc(-c3cnc(N4CCOCC4)nc3)ccc2c(-c2ccc3c4c(ccnc24)CCO3)c1[C@H](OC(C)(C)C)C(=O)O` (atropisomer, axis not shown) [Example 52] yielded an EC50 of 16.8 nM.
In the case of `Cc1cc2cc(-c3cnc(N)nc3)ccc2c(-c2ccc3c4c(ccnc24)CCO3)c1[C@H](OC(C)(C)C)C(=O)O` (atropisomer, axis not shown) [Example 55], the EC50 is reported as 7.53 nM.

Same assay, conditions: Table I; MT-4 cells infected with HIV-IIIb, 5 days incubation, CellTiter-Glo readout
For `COCC(C)(C)O[C@H](C(=O)O)c1c(C)cc2ccccc2c1-c1ccc2c3c(ccnc13)CCO2` (atropisomer, axis not shown) [Example 25, (2S)-2-((R)-1-(2,3-dihydropyrano[4,3,2-de]quinolin-7-yl)-3-methylnaphthalen-2-yl)-2-(1-methoxy-2-methylpropan-2-yloxy)acetic acid], the EC50 was 37 nM.
`COCC(C)(C)O[C@H](C(=O)O)c1c(C)cc2ccccc2c1-c1ccc2c3c(ccnc13)CCO2` (atropisomer, axis not shown) [Example 26, (2S)-2-((S)-1-(2,3-Dihydropyrano[4,3,2-de]quinolin-7-yl)-3-methylnaphthalen-2-yl)-2-(1-methoxy-2-methylpropan-2-yloxy)acetic acid] was tested, and the EC50 was 929 nM.
`CCOCC(C)(C)O[C@H](C(=O)O)c1c(C)cc2ccccc2c1-c1ccc2c3c(ccnc13)CCO2` (atropisomer, axis not shown) [Example 27, (2S)-2-((R)-1-(2,3-Dihydropyrano[4,3,2-de]quinolin-7-yl)-3-methylnaphthalen-2-yl)-2-(1-ethoxy-2-methylpropan-2-yloxy)acetic acid] gave an EC50 of 84 nM.
Work on `CCOCC(C)(C)O[C@H](C(=O)O)c1c(C)cc2ccccc2c1-c1ccc2c3c(ccnc13)CCO2` (atropisomer, axis not shown) [Example 28, (2S)-2-((S)-1-(2,3-Dihydropyrano[4,3,2-de]quinolin-7-yl)-3-methylnaphthalen-2-yl)-2-(1-ethoxy-2-methylpropan-2-yloxy)acetic acid] yielded an EC50 of 1230 nM.

Same assay, conditions: Table II; MT-4 cells infected with HIV-IIIb, 5 days incubation, CellTiter-Glo readout
Compound `CC(C)(C)O[C@H](C(=O)O)c1c2c(c3ccccc3c1-c1ccc3c4c(ccnc14)CCO3)CCC2` (atropisomer, axis not shown) [Example 33] has an EC50 of 1660 nM.
For `CC(C)(C)O[C@H](C(=O)O)c1c2c(c3ccccc3c1-c1ccc3c4c(ccnc14)CCO3)CCC2` (atropisomer, axis not shown) [Example 34], the EC50 was 60 nM.
For `Cc1cc2cc(-c3cnc(-c4ccccc4)nc3)ccc2c(-c2ccc3c4c(ccnc24)CCO3)c1[C@H](OC(C)(C)C)C(=O)O` (atropisomer, axis not shown) [Example 36], the EC50 was 100 nM.
`Cc1cc2cc(-c3cnc(-c4ccccc4)nc3)ccc2c(-c2ccc3c4c(ccnc24)CCO3)c1[C@H](OC(C)(C)C)C(=O)O` (atropisomer, axis not shown) [Example 37] was tested, and the EC50 was 4450 nM.
`Cc1cc2cc(-c3cnc(-c4cncnc4)nc3)ccc2c(-c2ccc3c4c(ccnc24)CCO3)c1[C@H](OC(C)(C)C)C(=O)O` (atropisomer, axis not shown) [Example 38] showed an EC50 of 45.2 nM.
With `Cc1cc2cc(-c3cnc(-c4cncnc4)nc3)ccc2c(-c2ccc3c4c(ccnc24)CCO3)c1[C@H](OC(C)(C)C)C(=O)O` (atropisomer, axis not shown) [Example 39] the EC50 was 8680 nM.
Compound `Cc1cc2cc(-c3ccc(-c4cncnc4)cc3)ccc2c(-c2ccc3c4c(ccnc24)CCO3)c1[C@H](OC(C)(C)C)C(=O)O` (atropisomer, axis not shown) [Example 40] has an EC50 of 542 nM.
For `Cc1cc2cc(-c3ccc(-c4cncnc4)cc3)ccc2c(-c2ccc3c4c(ccnc24)CCO3)c1[C@H](OC(C)(C)C)C(=O)O` (atropisomer, axis not shown) [Example 41], the EC50 was 40.9 nM.
`Cc1cc2cc(C#Cc3cncnc3)ccc2c(-c2ccc3c4c(ccnc24)CCO3)c1[C@H](OC(C)(C)C)C(=O)O` (atropisomer, axis not shown) [Example 42] gave an EC50 of 53200 nM.
For `Cc1cc2cc(C#Cc3cncnc3)ccc2c(-c2ccc3c4c(ccnc24)CCO3)c1[C@H](OC(C)(C)C)C(=O)O` (atropisomer, axis not shown) [Example 43], the EC50 was 121 nM.
With `Cc1cc2cc(-c3ccc4c(cnn4C)c3)ccc2c(-c2ccc3c4c(ccnc24)CCO3)c1[C@H](OC(C)(C)C)C(=O)O` (atropisomer, axis not shown) [Example 44] the EC50 was 55.6 nM.
`Cc1cc2cc(-c3ccc4c(cnn4C)c3)ccc2c(-c2ccc3c4c(ccnc24)CCO3)c1[C@H](OC(C)(C)C)C(=O)O` (atropisomer, axis not shown) [Example 45] showed an EC50 of 354 nM.
`Cc1cc2cc(-c3cncnc3N)ccc2c(-c2ccc3c4c(ccnc24)CCO3)c1[C@H](OC(C)(C)C)C(=O)O` (atropisomer, axis not shown) [Example 53] showed an EC50 of 74.2 nM.
`Cc1cc2cc(-c3cncnc3N)ccc2c(-c2ccc3c4c(ccnc24)CCO3)c1[C@H](OC(C)(C)C)C(=O)O` (atropisomer, axis not shown) [Example 54] was tested, and the EC50 was 19400 nM.
`Cc1cc2cc(-c3cncnc3C)ccc2c(-c2ccc3c4c(ccnc24)CCO3)c1[C@H](OC(C)(C)C)C(=O)O` (atropisomer, axis not shown) [Example 56] showed an EC50 of 30.5 nM.
Compound `Cc1cc2cc(-c3cncnc3C)ccc2c(-c2ccc3c4c(ccnc24)CCO3)c1[C@H](OC(C)(C)C)C(=O)O` (atropisomer, axis not shown) [Example 57] has an EC50 of 10000 nM.
